#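 Compound exposure: 48 hours, 5 concentrations, 96-well plates. GI50: concentration for 50% inhibition of growth.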 Calls of active or inactive are those of the source. Rule as the data show it: active = GI50 up to about 1.1 µM and inactive = higher.
# What was measured:
# Experiment in all cases: NCI-60 cell line screen, 48 h
# NCI-H23 = system: NCI-H23
# SF-268 = system: SF-268
# SNB-19 = system: SNB-19
# DMS-114 = system: DMS-114
# RXF 631 = system: RXF 631
# HL-60 = system: HL-60
# SNB-75 = system: SNB-75
# CCRF-CEM = system: CCRF-CEM
# 786-0 = system: 786-0
# HT-29 = system: HT-29
# HOP-92 = system: HOP-92
# SN12C = system: SN12C
# RPMI-8226 = system: RPMI-8226
# A549 = system: A549
# MOLT-4 = system: MOLT-4
# HOP-62 = system: HOP-62
# UACC-62 = system: UACC-62
# SW-620 = system: SW-620
# OVCAR-4 = system: OVCAR-4
# OVCAR-5 = system: OVCAR-5
# SF-295 = system: SF-295
# SF-539 = system: SF-539
# M14 = system: M14
# U-251 = system: U-251
# KM12 = system: KM12
# IGROV-1 = system: IGROV-1
# SR = system: SR
# RXF 393 = system: RXF 393
# HCT-15 = system: HCT-15
# OVCAR-3 = system: OVCAR-3
# Malme-3M = system: Malme-3M
# KM-20L2 = system: KM-20L2
# EKVX = system: EKVX
# DMS-273 = system: DMS-273
# SK-OV-3 = system: SK-OV-3
# SK-MEL-28 = system: SK-MEL-28
# LOX IMVI = system: LOX IMVI
# LXFL 529 = system: LXFL 529
# TK-10 = system: TK-10
# K562 = system: K562
# HCC 2998 = system: HCC 2998
# NCI-H522 = system: NCI-H522
# XF498 = system: XF498
# UACC-257 = system: UACC-257
# SK-MEL-2 = system: SK-MEL-2
# ACHN = system: ACHN
# DLD-1 = system: DLD-1
# UO-31 = system: UO-31
# SK-MEL-5 = system: SK-MEL-5
# M19-MEL = system: M19-MEL
# NCI-H460 = system: NCI-H460
# SNB-78 = system: SNB-78
# A498 = system: A498
# COLO 205 = system: COLO 205
# OVCAR-8 = system: OVCAR-8
# CAKI-1 = system: CAKI-1
# HCT-116 = system: HCT-116
# NCI-H226 = system: NCI-H226
# HOP-18 = system: HOP-18
smiles,measurement,setting,value
CCOC(=O)c1oc2c(OC)ccc3c2c1CCC3,GI50,NCI-H23,96.4 µM (inactive)
same,GI50,SF-268,> 100 µM (inactive)
same,GI50,SNB-19,> 100 µM (inactive)
same,GI50,DMS-114,> 100 µM (inactive)
same,GI50,RXF 631,> 100 µM (inactive)
same,GI50,HL-60,> 100 µM (inactive)
same,GI50,SNB-75,77.6 µM (inactive)
same,GI50,CCRF-CEM,73.3 µM (inactive)
same,GI50,786-0,> 100 µM (inactive)
same,GI50,HT-29,37.7 µM (inactive)
same,GI50,HOP-92,86.9 µM (inactive)
same,GI50,SN12C,> 100 µM (inactive)
same,GI50,RPMI-8226,> 100 µM (inactive)
same,GI50,A549,> 100 µM (inactive)
same,GI50,MOLT-4,37.1 µM (inactive)
same,GI50,HOP-62,> 100 µM (inactive)
same,GI50,UACC-62,> 100 µM (inactive)
same,GI50,SW-620,> 100 µM (inactive)
same,GI50,OVCAR-4,> 100 µM (inactive)
same,GI50,OVCAR-5,> 100 µM (inactive)
same,GI50,SF-295,> 100 µM (inactive)
same,GI50,SF-539,> 100 µM (inactive)
same,GI50,M14,> 100 µM (inactive)
same,GI50,U-251,> 100 µM (inactive)
same,GI50,KM12,> 100 µM (inactive)
same,GI50,IGROV-1,> 100 µM (inactive)
same,GI50,SR,> 100 µM (inactive)
same,GI50,RXF 393,> 100 µM (inactive)
same,GI50,HCT-15,> 100 µM
same,GI50,OVCAR-3,> 100 µM (inactive)
same,GI50,Malme-3M,> 100 µM (inactive)
same,GI50,KM-20L2,> 100 µM (inactive)
same,GI50,EKVX,> 100 µM (inactive)
same,GI50,DMS-273,> 100 µM (inactive)
same,GI50,SK-OV-3,> 100 µM (inactive)
same,GI50,SK-MEL-28,> 100 µM (inactive)
same,GI50,LOX IMVI,> 100 µM (inactive)
same,GI50,LXFL 529,> 100 µM (inactive)
same,GI50,TK-10,> 100 µM (inactive)
same,GI50,K562,66.8 µM (inactive)
same,GI50,HCC 2998,> 100 µM (inactive)
same,GI50,NCI-H522,> 100 µM (inactive)
same,GI50,XF498,> 100 µM (inactive)
same,GI50,UACC-257,0.404 µM (active)
same,GI50,SK-MEL-2,> 100 µM (inactive)
same,GI50,ACHN,> 100 µM (inactive)
same,GI50,DLD-1,> 100 µM (inactive)
same,GI50,UO-31,33.6 µM (inactive)
same,GI50,SK-MEL-5,> 100 µM (inactive)
same,GI50,M19-MEL,> 100 µM (inactive)
same,GI50,NCI-H460,> 100 µM (inactive)
same,GI50,SNB-78,> 100 µM (inactive)
same,GI50,A498,> 100 µM (inactive)
same,GI50,COLO 205,> 100 µM (inactive)
same,GI50,OVCAR-8,> 100 µM (inactive)
COc1cc([C@@H]2c3cc4c(cc3[C@@H](OC(=O)c3ccccc3)C3COC(=O)[C@@H]32)OCO4)cc(OC)c1O (stereo partly drawn),GI50,NCI-H23,0.0148 µM (active)
same,GI50,SF-268,0.0289 µM (active)
same,GI50,DMS-114,< 0.01 µM (active)
same,GI50,RXF 631,< 0.01 µM (active)
same,GI50,HL-60,< 0.01 µM (active)
same,GI50,SNB-75,< 0.01 µM (active)
same,GI50,CCRF-CEM,0.0304 µM (active)
same,GI50,786-0,0.0254 µM (active)
same,GI50,HT-29,< 0.01 µM (active)
same,GI50,HOP-92,< 0.01 µM (active)
same,GI50,SN12C,0.0286 µM (active)
same,GI50,RPMI-8226,0.012 µM (active)
same,GI50,A549,0.0132 µM (active)
same,GI50,MOLT-4,0.0413 µM (active)
same,GI50,HOP-62,0.0208 µM (active)
same,GI50,UACC-62,< 0.01 µM (active)
same,GI50,SW-620,< 0.01 µM (active)
same,GI50,OVCAR-4,25.9 µM (inactive)
same,GI50,OVCAR-5,68.9 µM (inactive)
same,GI50,SF-295,< 0.01 µM (active)
same,GI50,SF-539,< 0.01 µM (active)
same,GI50,CAKI-1,< 0.01 µM (active)
same,GI50,U-251,0.0143 µM (active)
same,GI50,KM12,< 0.01 µM (active)
same,GI50,IGROV-1,0.0123 µM (active)
same,GI50,HCT-116,< 0.01 µM (active)
same,GI50,RXF 393,0.0101 µM (active)
same,GI50,Malme-3M,< 0.01 µM (active)
same,GI50,KM-20L2,0.0128 µM (active)
same,GI50,NCI-H226,< 0.01 µM (active)
same,GI50,DMS-273,< 0.01 µM (active)
same,GI50,HOP-18,> 100 µM (inactive)
same,GI50,SK-OV-3,< 0.01 µM (active)
same,GI50,SK-MEL-28,< 0.01 µM (active)
same,GI50,LOX IMVI,< 0.01 µM (active)
same,GI50,LXFL 529,< 0.01 µM (active)
same,GI50,TK-10,38.9 µM (inactive)
same,GI50,K562,< 0.01 µM (active)
same,GI50,HCC 2998,0.0345 µM (active)
same,GI50,NCI-H522,< 0.01 µM (active)
same,GI50,SK-MEL-2,0.0104 µM (active)
same,GI50,ACHN,< 0.01 µM (active)
same,GI50,UO-31,0.132 µM (active)
same,GI50,SK-MEL-5,< 0.01 µM (active)
same,GI50,M19-MEL,< 0.01 µM (active)
same,GI50,NCI-H460,0.0129 µM (active)
same,GI50,COLO 205,0.148 µM (active)
same,GI50,OVCAR-8,< 0.01 µM (active)
